Structures are written as SMILES. Several values for one entry are separate records, joined by “and”; a condition that tells them apart may be missing. Identical values can stand only once.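 48-hour exposure; five concentrations; linearly interpolated endpoints. The concentration for full growth arrest is given as TGI.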 Bounds are passed on as bounds.

These results are taken from PubChem BioAssay (NCI).

Holding throughout (experiment): NCI anticancer screen, dose series, 48 h
For experiment [1], the system named is SK-MEL-2 melanoma.
Experiment [2] relates to A498 renal.
Experiment [3] concerns KM12 colon.
In experiment [4] the test system is DLD-1 colon.
Experiment [5] has as its system UO-31 renal.
For experiment [6], the system named is DMS 114 small cell lung.
The subject of experiment [7] is SNB-78 CNS.
For experiment [8], the system named is SF-539 CNS.
In experiment [9] the test system is SF-268 CNS.
Experiment [10] deals with DMS 273 small cell lung.

For the molecule `CC1=NN(C(=O)Cc2ccccc2)C(=O)/C1=C\c1ccccc1O`, the TGI in experiment [1], in experiment [2], in experiment [3], in experiment [4], in experiment [5] and in [6] was above 100 µM in each case. Also, the TGI in experiment [7], in experiment [8] and in experiment [9] was above 100 µM each time.
Turning to `CO[C@]12CC(=O)C3(C(C[C@H]4CC5CC[C@H]6C[C@@H](OC(C)=O)CC[C@]6(OC(C)=O)C5C[C@@]43C)C1)C1C[C@H]3[C@@H]4CC[C@H]5C[C@@H](OC(C)=O)CC[C@]5(OC(C)=O)[C@H]4CC[C@]3(C)C12` (stereo partly specified), the TGI in [1], in experiment [2], in experiment [3], in [5], in [8] and in [9] was above 100 µM throughout.
Take `O=Cc1c(Br)[nH]c2ccccc12`: the TGI in experiment [1], in experiment [2], in experiment [3], in experiment [4], in experiment [5] and in experiment [10] was above 100 µM each time. Moreover, the TGI in [7], in experiment [8] and in experiment [9] was above 100 µM throughout.
Regarding `CN(C)C=NCC(O)c1ccccc1` (stereo unspecified), the TGI in [1], in [2], in [3], in experiment [5], in experiment [8] and in experiment [9] was above 100 µM throughout.
Take `COc1cc(S(=O)(=O)Nc2ccc(-c3csc(N4C(=O)C(C)SC4c4ccccc4)n3)cc2)ccc1Cl` (stereo unspecified): the TGI in [1] is 21.5 µM; in experiment [2], above 100 µM; in experiment [3] it was above 100 µM; in [5] it was above 100 µM; in experiment [8], above 100 µM; in experiment [9], above 100 µM.
With `O=C(N[C@H]1CCC[C@H]1C(=O)Nc1ccc(C(F)(F)F)cc1)OCc1ccccc1`, the TGI in [1], in experiment [2], in experiment [3], in [5], in experiment [8] and in experiment [9] was above 100 µM in each case.
`COc1ccc(N2N=NN(C(C)C)/C2=C(/Cl)c2nnnn2-c2ccc(OC)cc2)cc1`: the TGI is 29.6 µM in [1]; 30.5 µM in [2]; 31.3 µM in experiment [3]; 10.8 µM in [5]; 33.5 µM in experiment [8]; 34.6 µM in experiment [9].
With `COc1ccc(N2C(=O)C3c4[nH]c5ccccc5c4C4c5ccccc5CC4C3C2=O)cc1` (stereo unspecified), the TGI in experiment [1], in experiment [2], in experiment [3], in experiment [5], in experiment [8] and in experiment [9] was above 100 µM throughout.
Turning to `COc1cc2c(c(OC)c1OC)-c1ccc(SC)c(=O)cc1[C@@H](NC(=O)c1ccc([N+](=O)[O-])cc1)CC2`, the TGI was 3.57 µM in experiment [2]; 25 µM and > 100 µM in [4]; 25 µM and 59.4 µM in experiment [5]; 25 µM and > 100 µM in experiment [10]; 0.89 µM in experiment [6]; 25 µM in experiment [7]. In addition, the TGI in [9] is 25 µM and > 100 µM.
`COc1cc(/C=C/C(=N\NC(=S)NN)c2sc(NNC(C)=O)nc2C)ccc1O`: the TGI in experiment [1], in experiment [2], in experiment [3], in experiment [5], in experiment [8] and in experiment [9] was above 100 µM throughout.
With `O=C(CSCC(=O)N/N=C\c1ccccc1F)N/N=C\c1ccccc1F`, the TGI in experiment [1], in experiment [2], in experiment [3], in [5], in experiment [8] and in experiment [9] was above 100 µM throughout.
Turning to `Cc1ccc(N=C2SC(=NN(C)C)SC2=Nc2ccc(C)cc2)cc1`, the TGI in experiment [1], in experiment [2], in [3], in [5], in experiment [8] and in experiment [9] was above 100 µM throughout.
Turning to `COc1ccc(Cn2c3ccc([N+](=O)[O-])cc3c(=O)n2Cc2ccccn2)cc1`, the TGI in experiment [1], in experiment [2], in experiment [3], in experiment [5], in experiment [8] and in experiment [9] was above 100 µM each time.
As for `C[N+](C)(C)CC(=O)N/N=C(/Cc1nc2ccc([N+](=O)[O-])cc2[nH]c1=O)C(=O)Nc1cc(C(F)(F)F)ccc1Cl`, the TGI in experiment [1], in [2], in experiment [3], in [4], in experiment [5] and in experiment [6] was above 100 µM throughout. The TGI in experiment [8] and in [9] was above 100 µM in each case.
Consider `O=NN1C(c2ccccc2)CCCC1c1ccccc1` (stereo unspecified), for which the TGI in experiment [1] was above 100 µM; in experiment [2] it was above 85.5 µM; in experiment [3] it was above 100 µM; in experiment [4], above 100 µM; in experiment [5], above 100 µM; in experiment [10] it was above 100 µM. The TGI in [6], in experiment [7], in experiment [8] and in experiment [9] was above 100 µM in each case.
On to `Nc1ccccc1OCCCOc1ccccc1N`, for which the TGI in [1], in [2], in experiment [3], in [5], in experiment [8] and in experiment [9] was above 100 µM throughout.
Take `CCOC1NC(/N=C/c2ccc(OC)cc2)=C(C#N)C1C#N` (stereo unspecified): the TGI in experiment [1], in experiment [2], in [3], in [5], in experiment [8] and in experiment [9] was above 100 µM throughout.
For `O=C1C=C(O)c2c(O)ccc(O)c2C1=O`, the TGI in [1], in [2], in experiment [3], in [5], in [8] and in experiment [9] was above 100 µM throughout.
